Reference: patent US10336732B2, “1-heterocyclyl isochromanyl compounds and analogs for treating CNS disorders” (Sunovion Pharmaceuticals Inc., priority 2015, dated 2019)

What follows are molecules tested on mice (assay: Neuropharmacological assay (SmartCube), behavioral signature of compound-treated mice). Conditions: i.p. 15 min before behavioral test, most efficacious dose(s) of 3 doses.
Assay type: in vivo
Procedure, shortened: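 Read-out is an automated video-based behavioral signature, scored as per-class probabilities (e.g., anxiolytic, antidepressant) against reference compounds. Dosing was i.p. at three doses, 15 min pre-test, in NMP, polyethylene glycol and propylene glycol. Values shown are from the most efficacious dose(s).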

Row | Structure (SMILES) | AD: ADHD (probability that behavioral signature matches class) | AG: analgesic (probability that behavioral signature matches class) | AX: anxiolytic (probability that behavioral signature matches class) | CE: cognitive enhancer (probability that behavioral signature matches class) | DP: anti-depressant (probability that behavioral signature matches class) | HA: hallucinogen (probability that behavioral signature matches class) | MS: mood stabilizer (probability that behavioral signature matches class) | PS: anti-psychotic (probability that behavioral signature matches class) | SD: sedative hypnotic (probability that behavioral signature matches class) | UN: uncharacterized CNS activity (probability that behavioral signature matches class)
1 | FC1(F)CN[C@H]([C@H]2OCCc3ccccc32)C1 [Compound I-63, (S)-4,4-difluoro-2-((S)-isochroman-1-yl)pyrrolidine] | + (LOQ ≤ + <5%) | + (LOQ ≤ + <5%) | + (LOQ ≤ + <5%) | + (LOQ ≤ + <5%) | + (LOQ ≤ + <5%) | + (LOQ ≤ + <5%) | + (LOQ ≤ + <5%) | + (LOQ ≤ + <5%) | + (LOQ ≤ + <5%) | + (LOQ ≤ + <5%)
2 | Fc1ccc2c(c1)CCO[C@H]2[C@H]1CCN1 [Compound I-92, (R)-2-((R)-6-fluoroisochroman-1-yl)azetidine] | + (LOQ ≤ + <5%) | ++ (5% ≤ ++ <25%) | ++ (5% ≤ ++ <25%) | +++ (25% ≤ +++ <50%) | ++ (5% ≤ ++ <25%) | + (LOQ ≤ + <5%) | ++ (5% ≤ ++ <25%) | +++ (25% ≤ +++ <50%) | + (LOQ ≤ + <5%) | + (LOQ ≤ + <5%)
3 | c1ccc2c(c1)CCO[C@@H]2[C@@H]1COCCN1 [Compound I-75, (S)-3-((S)-isochroman-1-yl)morpholine] | + (LOQ ≤ + <5%) | + (LOQ ≤ + <5%) | ++ (5% ≤ ++ <25%) | ++ (5% ≤ ++ <25%) | +++ (25% ≤ +++ <50%) | + (LOQ ≤ + <5%) | ++ (5% ≤ ++ <25%) | ++ (5% ≤ ++ <25%) | ++ (5% ≤ ++ <25%) | + (LOQ ≤ + <5%)
4 | Fc1ccc2c(c1)[C@H]([C@@H]1CCN1)OCC2 [Compound I-86, (S)-2-((R)-7-fluoroisochroman-1-yl)azetidine] | + (LOQ ≤ + <5%) | +++ (25% ≤ +++ <50%) | +++ (25% ≤ +++ <50%) | ++ (5% ≤ ++ <25%) | ++ (5% ≤ ++ <25%) | + (LOQ ≤ + <5%) | + (LOQ ≤ + <5%) | +++ (25% ≤ +++ <50%) | ++ (5% ≤ ++ <25%) | ++ (5% ≤ ++ <25%)

Same assay, conditions: i.p. 15 min before behavioral test, most efficacious dose(s) of 3 doses

Row | Structure (SMILES) | XG: anxiogenic (probability that behavioral signature matches class)
5 | FC1(F)CN[C@H]([C@H]2OCCc3ccccc32)C1 [Compound I-63, (S)-4,4-difluoro-2-((S)-isochroman-1-yl)pyrrolidine] | + (LOQ ≤ + <5%)
6 | Fc1ccc2c(c1)CCO[C@H]2[C@H]1CCN1 [Compound I-92, (R)-2-((R)-6-fluoroisochroman-1-yl)azetidine] | + (LOQ ≤ + <5%)
7 | c1ccc2c(c1)CCO[C@@H]2[C@@H]1COCCN1 [Compound I-75, (S)-3-((S)-isochroman-1-yl)morpholine] | + (LOQ ≤ + <5%)
8 | Fc1ccc2c(c1)[C@H]([C@@H]1CCN1)OCC2 [Compound I-86, (S)-2-((R)-7-fluoroisochroman-1-yl)azetidine] | + (LOQ ≤ + <5%)
